# Key:
# [1] = molecular target: T1, human recombinant HDAC1 (Homo sapiens, UniProt Q13547); test: HDAC1 enzyme activity inhibition assay (HDAC Fluorimetric Drug Discovery Kit); type: biochemical; conditions: human recombinant HDAC1, 10 μM substrate, 30° C. 60 minutes
# T1 construct: purchased Enzo Life Science BML-SE456
# Experimental: (§1) In order to examine the HDAC6 selectivity of the compounds of formula I of the present invention by HDAC1 and HDAC6 enzymatic activity inhibition assays, an experiment was performed using a conventional substance as a control.
# (§2) HDAC enzyme activity was measured using a HDAC Fluorimetric Drug Discovery Kit (BML-AK511, 516, Enzo Life Science). For the HDAC1 enzyme activity test, human recombinant HDAC1 (BML-SE456) was used as an enzyme source, and Fluor de Lys®-“SIRT1 (BNL-KI177) was used as a substrate. A 5-fold dilution of the compound was seeded into a 96-well plate, and then 0.3 μg of the enzyme and 10 μM of the substrate were added to each well of the plate and allowed to react at 30° C. for 60 minutes. Then, Fluor de Lys®-Developer II (BML-KI176) was added thereto and allowed to react for 30 minutes, after which the fluorescence value (Ex 360, Em 460) was measured using a multi-plate reader (Flexstation 3, Molecular Device). The HDAC6 enzyme was tested using human recombinant HDAC6 (382180) (Calbiochem) according to the same protocol as the HDAC1 enzyme activity test method. Based on the resulting values, each IC50 value was calculated using GraphPad Prism4.0 program.
# [2] = molecular target: T2, human recombinant HDAC6 (Homo sapiens, UniProt Q9UBN7); test: HDAC6 enzyme activity inhibition assay (HDAC Fluorimetric Drug Discovery Kit); type: biochemical; conditions: 30° C. 60 minutes
# T2 construct: purchased Calbiochem 382180
# T2 sequence (Q9UBN7 1-1215): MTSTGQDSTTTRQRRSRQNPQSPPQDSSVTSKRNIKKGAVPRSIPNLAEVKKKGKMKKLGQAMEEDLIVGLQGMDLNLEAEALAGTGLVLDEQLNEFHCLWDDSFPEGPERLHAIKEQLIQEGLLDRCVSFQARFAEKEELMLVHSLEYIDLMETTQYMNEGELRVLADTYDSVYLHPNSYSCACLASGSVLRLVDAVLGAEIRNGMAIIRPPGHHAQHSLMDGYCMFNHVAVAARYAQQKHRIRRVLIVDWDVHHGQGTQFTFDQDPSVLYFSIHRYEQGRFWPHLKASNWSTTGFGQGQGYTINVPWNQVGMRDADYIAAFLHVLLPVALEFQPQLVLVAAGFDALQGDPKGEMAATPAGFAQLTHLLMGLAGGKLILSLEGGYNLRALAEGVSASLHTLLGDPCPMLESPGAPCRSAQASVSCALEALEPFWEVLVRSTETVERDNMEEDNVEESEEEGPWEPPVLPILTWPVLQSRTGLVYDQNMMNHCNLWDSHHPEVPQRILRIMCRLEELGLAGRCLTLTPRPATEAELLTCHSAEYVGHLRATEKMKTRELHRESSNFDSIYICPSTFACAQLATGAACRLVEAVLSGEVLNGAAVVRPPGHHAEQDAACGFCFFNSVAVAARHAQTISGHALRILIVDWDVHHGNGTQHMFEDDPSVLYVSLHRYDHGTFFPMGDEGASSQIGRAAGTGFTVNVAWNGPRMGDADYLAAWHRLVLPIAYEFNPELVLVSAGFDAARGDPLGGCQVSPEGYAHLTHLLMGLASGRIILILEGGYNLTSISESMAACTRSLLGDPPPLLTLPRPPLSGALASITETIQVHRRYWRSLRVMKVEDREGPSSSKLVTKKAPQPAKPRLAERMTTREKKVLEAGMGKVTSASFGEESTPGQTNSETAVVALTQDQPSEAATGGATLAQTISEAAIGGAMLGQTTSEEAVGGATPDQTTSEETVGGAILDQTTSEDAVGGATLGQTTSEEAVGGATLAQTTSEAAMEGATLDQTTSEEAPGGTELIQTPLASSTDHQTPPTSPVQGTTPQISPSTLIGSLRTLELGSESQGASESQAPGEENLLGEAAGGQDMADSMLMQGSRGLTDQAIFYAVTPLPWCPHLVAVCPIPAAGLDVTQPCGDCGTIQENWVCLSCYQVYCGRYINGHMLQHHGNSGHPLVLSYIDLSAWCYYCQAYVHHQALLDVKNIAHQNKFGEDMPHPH
# Experimental: as §1, §2
# T1 sequence (Q13547 whole entry): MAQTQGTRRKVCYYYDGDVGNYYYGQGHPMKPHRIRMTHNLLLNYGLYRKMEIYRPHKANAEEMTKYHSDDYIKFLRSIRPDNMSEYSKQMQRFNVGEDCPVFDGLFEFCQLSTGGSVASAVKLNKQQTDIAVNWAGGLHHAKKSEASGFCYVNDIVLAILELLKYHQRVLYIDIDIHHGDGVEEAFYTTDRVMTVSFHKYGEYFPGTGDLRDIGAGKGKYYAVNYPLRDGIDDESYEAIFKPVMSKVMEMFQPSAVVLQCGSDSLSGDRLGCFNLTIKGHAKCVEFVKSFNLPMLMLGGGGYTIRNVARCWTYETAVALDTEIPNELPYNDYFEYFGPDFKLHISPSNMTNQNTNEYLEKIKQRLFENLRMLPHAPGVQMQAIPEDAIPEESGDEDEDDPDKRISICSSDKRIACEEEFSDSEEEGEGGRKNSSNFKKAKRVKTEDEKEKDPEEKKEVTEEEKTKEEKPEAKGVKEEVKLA
Structure (SMILES),IC50 [1] [nM],IC50 [2] [nM]
"FC(F)c1nnc(-c2cnc(NC3(c4cccc(C(F)(F)F)c4)CCC3)nc2)o1 [Compound 1642, 5-(5-(difluoromethyl)-1,3,4-oxadiazol-2-yl)-N-(1-(3-(trifluoromethyl)phenyl)cyclobutyl)pyrimidin-2-amine]",> 10000,57
"FC(F)c1nnc(-c2cnc(NC3(c4ccccc4OC(F)(F)F)CCC3)nc2)o1 [Compound 2028, 5-(5-(difluoromethyl)-1,3,4-oxadiazol-2-yl)-N-(1-(2-(trifluoromethoxy)phenyl)cyclobutyl)pyrimidin-2-amine]",> 10000,302
"Fc1ccc(C2(Nc3ncc(-c4nnc(C(F)F)o4)cn3)CCC2)cc1Cl [Compound 1817, N-(1-(3-chloro-4-fluorophenyl)cyclobutyl)-5-(5-(difluoromethyl)-1,3,4-oxadiazol-2-yl)pyrimidin-2-amine]",> 10000,78
"FC(F)c1nnc(-c2cnc(NC3(c4ccccc4Cl)CCC3)nc2)o1 [Compound 1614, N-(1-(2-chlorophenyl)cyclobutyl)-5-(5-(difluoromethyl)-1,3,4-oxadiazol-2-yl)pyrimidin-2-amine]",> 10000,29
"Fc1cccc(C2(Nc3ncc(-c4nnc(C(F)(F)F)o4)cn3)CC2)c1 [Compound 1714, N-(1-(3-fluorophenyl)cyclopropyl)-5-(5-(trifluoromethyl)-1,3,4-oxadiazol-2-yl)pyrimidin-2-amine]",> 10000,138
"FC(F)(F)c1nnc(-c2cnc(NC3(c4cccc(Cl)c4)CC3)nc2)o1 [Compound 2051, N-(1-(3-chlorophenyl)cyclopropyl)-5-(5-(trifluoromethyl)-1,3,4-oxadiazol-2-yl)pyrimidin-2-amine]",> 10000,152
"FC(F)c1nnc(-c2cnc(NC3(c4ccc(C(F)(F)F)cc4)CC3)nc2)o1 [Compound 1738, 5-(5-(difluoromethyl)-1,3,4-oxadiazol-2-yl)-N-(1-(4-(trifluoromethyl)phenyl)cyclopropyl)pyrimidin-2-amine]",> 10000,132
"Fc1ccccc1C1(Nc2ncc(-c3nnc(C(F)F)o3)cn2)CC1 [Compound 1683, 5-(5-(difluoromethyl)-1,3,4-oxadiazol-2-yl)-N-(1-(2-fluorophenyl)cyclopropyl)pyrimidin-2-amine]",> 10000,21
"Fc1ccc(C2(Nc3ncc(-c4nnc(C(F)F)o4)cn3)CCC2)c(Cl)c1 [Compound 1959, N-(1-(2-chloro-4-fluorophenyl)cyclobutyl)-5-(5-(difluoromethyl)-1,3,4-oxadiazol-2-yl)pyrimidin-2-amine]",> 10000,163
"FC(F)(F)c1ccc(C2(Nc3ncc(-c4nnc(C(F)(F)F)o4)cn3)CC2)cc1 [Compound 1742, 5-(5-(trifluoromethyl)-1,3,4-oxadiazol-2-yl)-N-(1-(4-(trifluoromethyl)phenyl)cyclopropyl)pyrimidin-2-amine]",> 10000,531
"Cc1ccc(S(=O)(=O)CC2(Nc3ncc(-c4nnc(C(F)F)o4)cn3)CCC2)cc1 [Compound 2026, 5-(5-(difluoromethyl)-1,3,4-oxadiazol-2-yl)-N-(1-(tosylmethyl)cyclobutyl)pyrimidin-2-amine]",> 10000,> 10000
"Cc1cccc(C2(Nc3ncc(-c4nnc(C(F)(F)F)o4)cn3)CCC2)c1 [Compound 1674, N-(1-(m-tolyl)cyclobutyl)-5-(5-(trifluoromethyl)-1,3,4-oxadiazol-2-yl)pyrimidin-2-amine]",> 10000,132
"CC(C)N1CCC(c2ccc(C3(Nc4ncc(-c5nnc(C(F)F)o5)cn4)CCC3)cc2)CC1 [Compound 2037, 5-(5-(difluoromethyl)-1,3,4-oxadiazol-2-yl)-N-(1-(4-(1-isopropylpiperidin-4-yl)phenyl)cyclobutyl)pyrimidin-2-amine]",> 10000,397
"Fc1ccc(F)c(C2(Nc3ncc(-c4nnc(C(F)F)o4)cn3)CCC2)c1 [Compound 1821, 5-(5-(difluoromethyl)-1,3,4-oxadiazol-2-yl)-N-(1-(2,5-difluorophenyl)cyclobutyl)pyrimidin-2-amine]",> 10000,32
"Fc1cc(F)cc(C2(Nc3ncc(-c4nnc(C(F)F)o4)cn3)CC2)c1 [Compound 2057, 5-(5-(difluoromethyl)-1,3,4-oxadiazol-2-yl)-N-(1-(3,5-difluorophenyl)cyclopropyl)pyrimidin-2-amine]",> 10000,33
"FC(F)c1nnc(-c2cnc(NC3(c4ccc(Cl)cc4Cl)CCC3)nc2)o1 [Compound 1836, N-(1-(2,4-dichlorophenyl)cyclobutyl)-5-(5-(difluoromethyl)-1,3,4-oxadiazol-2-yl)pyrimidin-2-amine]",> 10000,200
"Cc1ccccc1C1(Nc2ncc(-c3nnc(C(F)F)o3)cn2)CCC1 [Compound 1671, 5-(5-(difluoromethyl)-1,3,4-oxadiazol-2-yl)-N-(1-(o-tolyl)cyclobutyl)pyrimidin-2-amine]",> 10000,44
"Cc1ccc(C2(Nc3ncc(-c4nnc(C(F)(F)F)o4)cn3)CCC2)cc1 [Compound 1676, N-(1-(p-tolyl)cyclobutyl)-5-(5-(trifluoromethyl)-1,3,4-oxadiazol-2-yl)pyrimidin-2-amine]",> 10000,242
"Fc1cccc(C2(Nc3ncc(-c4nnc(C(F)F)o4)cn3)CCC2)c1 [Compound 1607, 5-(5-(difluoromethyl)-1,3,4-oxadiazol-2-yl)-N-(1-(3-fluorophenyl)cyclobutyl)pyrimidin-2-amine]",> 10000,32
"Fc1ccc(C2(Nc3ncc(-c4nnc(C(F)F)o4)cn3)CC2)cc1Cl [Compound 1722, N-(1-(3-chloro-4-fluorophenyl)cyclopropyl)-5-(5-(difluoromethyl)-1,3,4-oxadiazol-2-yl)pyrimidin-2-amine]",> 10000,29
"Fc1ccc(C2(Nc3ncc(-c4nnc(C(F)F)o4)cn3)CCC2)cc1 [Compound 1611, 5-(5-(difluoromethyl)-1,3,4-oxadiazol-2-yl)-N-(1-(4-fluorophenyl)cyclobutyl)pyrimidin-2-amine]",> 10000,38
"Fc1cc(F)cc(C2(Nc3ncc(-c4nnc(C(F)F)o4)cn3)CCC2)c1 [Compound 1819, 5-(5-(difluoromethyl)-1,3,4-oxadiazol-2-yl)-N-(1-(3,5-difluorophenyl)cyclobutyl)pyrimidin-2-amine]",> 10000,70
"Cc1ccc(C2(Nc3ncc(-c4nnc(C(F)F)o4)cn3)CCC2)cc1 [Compound 1675, 5-(5-(difluoromethyl)-1,3,4-oxadiazol-2-yl)-N-(1-(p-tolyl)cyclobutyl)pyrimidin-2-amine]",> 10000,39
"FC(F)c1nnc(-c2cnc(NC3(c4ccsc4)CCC3)nc2)o1 [Compound 2038, 5-(5-(difluoromethyl)-1,3,4-oxadiazol-2-yl)-N-(1-(thiophen-3-yl)cyclobutyl)pyrimidin-2-amine]",> 10000,111
"Fc1ccc(C2(Nc3ncc(-c4nnc(C(F)F)o4)cn3)CC2)cc1F [Compound 1779, 5-(5-(difluoromethyl)-1,3,4-oxadiazol-2-yl)-N-(1-(3,4-difluorophenyl)cyclopropyl)pyrimidin-2-amine]",,134

# — patent US10494355B2, “Oxadiazole amine derivative compounds as histone deacetylase 6 inhibitor, and the pharmaceutical composition comprising the same” (Chong Kun Dang Pharmaceutical Corp., priority 2015, dated 2019)
